Test results taken from patent US20250340575A1, “4-AMINOPYRROLO[2,1-F][1,2,4]TRIAZINES AND PREPARATION AND USES THEREOF” (Biosplice Therapeutics, Inc., priority 2024, published 2025).

These compounds were tested against recombinant DYRK1A kinase (Homo sapiens, UniProt Q13627) (assay: DYRK1A kinase assay (Ser/Thr 18 peptide Z-lyte FRET)). Settings: DYRK1A 0.25 μg/mL, ATP 15 μM, Ser/Thr peptide 18 4 μM, one hour at room temperature, 11-point dose-response from 10 μM.
Type: biochemical
Procedure: Representative compounds were screened using the assay procedure for DYRK1A kinase activity as described below.
Each compound was dissolved in DMSO as a 10 mM stock and used to prepare compound source plates. Serial dilution (1:3, 11-point dose-response curves from 10 μM to 0.00016 μM) and compound transfer was performed using the ECHO 550 (Labcyte, Sunnyvale, CA) into 1536-well black-walled round bottom plates (Corning).
The DYRK1A kinase assay was run using the Ser/Thr 18 peptide Z-lyte assay kit according to manufacturer's instructions (Life Technologies—a Division of Thermo-Fisher). This is a non-radioactive assay using fluorescence resonance energy transfer (FRET) between coumarin and fluorescein to detect kinase activity which is represented as a ratio of coumarin emission/fluorescein emission.
Briefly, recombinant DYRK1A kinase, ATP and Ser/Thr peptide 18 were prepared in 1× Kinase buffer to final concentrations of 0.25 μg/mL, 15 μM, and 4 μM respectively. The mixture was allowed to incubate with the representative compounds for one hour at room temperature. All reactions were performed in duplicate. Unphosphorylated (“0% Control”) and phosphorylated (“100% control”) forms of Ser/Thr 18 served as control reactions. Additionally, an 11-point dose-response curve of Staurosporine (1 uM top) was run to serve as a positive compound control.
After incubation, Development Reagent A was diluted in Development Buffer then added to the reaction and allowed to further incubate for one hour at room temperature. The plate was read at Ex 400 Em 455 to detect the coumarin signal and Ex 400 Em 520 to measure the signal (EnVision Multilabel Plate Reader, PerkinElmer).
The Emission ratio (Em) was calculated as a ratio of the coumarin (C) emission signal (at 445 nm)/Fluorescein (F) emission signal (at 520 nm). The percent phosphorylation was then calculated using the following formula: [1−((Em ratio×F100%)−C100%)/((C0%−C100%)+(Em ratio×(F100%−F0%)))]. Dose-response curves were generated, and inhibitory concentration (IC50) values were calculated using non-linear regression curve fit in the Dotmatics' Studies Software (Bishops Stortford, UK).
CN1C[C@@H](Nc2nc(N)c3c(-c4ccc5ncn(CC(F)(F)F)c5n4)ccn3n2)C(F)(F)C1 [Compound 124, (R)—N^2-(4,4-Difluoro-1-methylpyrrolidin-3-yl)-5-(3-(2,2,2-trifluoroethyl)-3H-imidazo[4,5-b]pyridin-5-yl)pyrrolo[2,1-f][1,2,4]triazine-2,4-diamine] showed an IC50 of 1 nM. Compound CN1CC[C@H](Nc2nc(N)c3c(-c4ccc5ncn(CC(F)(F)F)c5n4)ccn3n2)[C@H](F)C1 [Compound 125, N^2-((3R,4S)-3-Fluoro-1-methylpiperidin-4-yl)-5-(3-(2,2,2-trifluoroethyl)-3H-imidazo[4,5-b]pyridin-5-yl)pyrrolo[2,1-f][1,2,4]triazine-2,4-diamine] has an IC50 of 1.7 nM. COCCN1CC[C@H](Nc2nc(N)c3c(-c4ccc5ncn(CC(F)(F)F)c5n4)ccn3n2)[C@H](F)C1 [Compound 126, N^2-((3R,4S)-3-Fluoro-1-(2-methoxyethyl)piperidin-4-yl)-5-(3-(2,2,2-trifluoroethyl)-3H-imidazo[4,5-b]pyridin-5-yl)pyrrolo[2,1-f][1,2,4]triazine-2,4-diamine] showed an IC50 of 1.3 nM. CC(=O)N1CC[C@H](Nc2nc(N)c3c(-c4ccc5ncn(CC(F)(F)F)c5n4)ccn3n2)[C@H](F)C1 [Compound 127, 1-((3R,4S)-4-((4-Amino-5-(3-(2,2,2-trifluoroethyl)-3H-imidazo[4,5-b]pyridin-5-yl)pyrrolo[2,1-f][1,2,4]triazin-2-yl)amino)-3-fluoropiperidin-1-yl)ethan-1-one] showed an IC50 of 1.5 nM. Nc1nc(N[C@@H]2CCN(C3COC3)C[C@@H]2F)nn2ccc(-c3ccc4ncn(CC(F)(F)F)c4n3)c12 [Compound 128, N^2-((3S,4R)-3-Fluoro-1-(oxetan-3-yl)piperidin-4-yl)-5-(3-(2,2,2-trifluoroethyl)-3H-imidazo[4,5-b]pyridin-5-yl)pyrrolo[2,1-f][1,2,4]triazine-2,4-diamine] gave an IC50 of 1.4 nM. Compound Nc1nc(N[C@H]2CCN(C3COC3)C[C@H]2F)nn2ccc(-c3ccc4ncn(CC(F)(F)F)c4n3)c12 [Compound 129, N^2-((3R,4S)-3-Fluoro-1-(oxetan-3-yl)piperidin-4-yl)-5-(3-(2,2,2-trifluoroethyl)-3H-imidazo[4,5-b]pyridin-5-yl)pyrrolo[2,1-f][1,2,4]triazine-2,4-diamine] has an IC50 of 1.4 nM. Nc1nc(N[C@@H]2CCN(C3COC3)CC2(F)F)nn2ccc(-c3ccc4ncn(CC(F)(F)F)c4n3)c12 [Compound 131, (R)—N^2-(3,3-Difluoro-1-(oxetan-3-yl)piperidin-4-yl)-5-(3-(2,2,2-trifluoroethyl)-3H-imidazo[4,5-b]pyridin-5-yl)pyrrolo[2,1-f][1,2,4]triazine-2,4-diamine] gave an IC50 of 4.7 nM. Work on CNc1nc(N[C@H]2C[C@](C)(O)C2)nn2ccc(-c3ccc4ncn(CC(F)(F)F)c4n3)c12 [Compound 132, (1r,3r)-1-Methyl-3-((4-(methylamino)-5-(3-(2,2,2-trifluoroethyl)-3H-imidazo [4,5-b]pyridin-5-yl)pyrrolo[2,1-f][1,2,4]triazin-2-yl)amino)cyclobutan-1-ol] yielded an IC50 of 1.2 nM. In the case of CNc1nc(N[C@H]2CCN(C(C)=O)C[C@H]2F)nn2ccc(-c3ccc4nc(C)n(C(F)F)c4n3)c12 [Compound 134], the IC50 is reported as 5 nM. Work on CNc1nc(N[C@H]2CCN(C3COC3)C[C@H]2F)nn2ccc(-c3ccc4nc(C)n(C(F)F)c4n3)c12 [Compound 135, 5-(3-(Difluoromethyl)-2-methyl-3H-imidazo[4,5-b]pyridin-5-yl)-N^2-((3R,4S)-3-fluoro-1-(oxetan-3-yl)piperidin-4-yl)-N^4-methylpyrrolo[2,1-f][1,2,4]triazine-2,4-diamine] yielded an IC50 of 6.4 nM. Cc1nc2ccc(-c3ccn4nc(N[C@@H]5CCN(C6COC6)C[C@@H]5F)nc(N)c34)nc2n1CCF [Compound 141, N^2-((3S,4R)-3-Fluoro-1-(oxetan-3-yl)piperidin-4-yl)-5-(3-(2-fluoroethyl)-2-methyl-3H-imidazo[4,5-b]pyridin-5-yl)pyrrolo[2,1-f][1,2,4]triazine-2,4-diamine] gave an IC50 of 3.4 nM. Cc1nc2ccc(-c3ccn4nc(N[C@@H]5CCN(C)CC5(F)F)nc(N)c34)nc2n1CCF [Compound 142, (R)—N^2-(3,3-Difluoro-1-methylpiperidin-4-yl)-5-(3-(2-fluoroethyl)-2-methyl-3H-imidazo[4,5-b]pyridin-5-yl)pyrrolo[2,1-f][1,2,4]triazine-2,4-diamine] gave an IC50 of 2.7 nM. Compound Cc1nc2ccc(-c3c(F)cn4nc(N[C@H]5CC[C@](C)(O)CC5)nc(N)c34)nc2n1CCF [Compound 143, (1r,4r)-4-((4-Amino-6-fluoro-5-(3-(2-fluoroethyl)-2-methyl-3H-imidazo[4,5-b]pyridin-5-yl)pyrrolo[2,1-f][1,2,4]triazin-2-yl)amino)-1-methylcyclohexan-1-ol] has an IC50 of 1.3 nM. In the case of CC(=O)N1CC[C@H](Nc2nc(N)c3c(-c4ccc5nc(C)n(CCF)c5n4)c(F)cn3n2)[C@H](F)C1 [Compound 144, 1-((3R,4S)-4-((4-Amino-6-fluoro-5-(3-(2-fluoroethyl)-2-methyl-3H-imidazo [4,5-b]pyridin-5-yl)pyrrolo[2,1-f][1,2,4]triazin-2-yl)amino)-3-fluoropiperidin-1-yl)ethan-1-one], the IC50 is reported as 4.2 nM. For Cc1nc2ccc(-c3c(F)cn4nc(N[C@H]5CCN(C6COC6)C[C@H]5F)nc(N)c34)nc2n1CCF [Compound 145, 6-Fluoro-N2-((3R,4S)-3-fluoro-1-(oxetan-3-yl)piperidin-4-yl)-5-(3-(2-fluoroethyl)-2-methyl-3H-imidazo[4,5-b]pyridin-5-yl)pyrrolo[2,1-f][1,2,4]triazine-2,4-diamine], the IC50 was 1.7 nM. Cc1nc2ccc(-c3c(F)cn4nc(N[C@@H]5CCN(C)CC5(F)F)nc(N)c34)nc2n1CCF [Compound 146, (R)—N^2-(3,3-Difluoro-1-methylpiperidin-4-yl)-6-fluoro-5-(3-(2-fluoroethyl)-2-methyl-3H-imidazo[4,5-b]pyridin-5-yl)pyrrolo[2,1-f][1,2,4]triazine-2,4-diamine] showed an IC50 of 0.8 nM. In the case of CC(=O)N1CC[C@@H](Nc2nc(N)c3c(-c4ccc5nc(C)n(CCF)c5n4)c(F)cn3n2)C(F)(F)C1 [Compound 147, (R)-1-(4-((4-Amino-6-fluoro-5-(3-(2-fluoroethyl)-2-methyl-3H-imidazo[4,5-b]pyridin-5-yl)pyrrolo[2,1-f][1,2,4]triazin-2-yl)amino)-3,3-difluoropiperidin-1-yl)ethan-1-one], the IC50 is reported as 1.4 nM. Cc1nc2ccc(-c3c(F)cn4nc(N[C@@H]5CCN(C6COC6)CC5(F)F)nc(N)c34)nc2n1CCF [Compound 149, (R)—N^2-(3,3-Difluoro-1-(oxetan-3-yl)piperidin-4-yl)-6-fluoro-5-(3-(2-fluoroethyl)-2-methyl-3H-imidazo[4,5-b]pyridin-5-yl)pyrrolo[2,1-f][1,2,4]triazine-2,4-diamine] gave an IC50 of 0.8 nM. For CNc1nc(N[C@H]2CCN(C3COC3)C[C@H]2F)nn2ccc(-c3ccc4nc(C)n(CCF)c4n3)c12 [Compound 157, N^2-((3R,4S)-3-Fluoro-1-(oxetan-3-yl)piperidin-4-yl)-5-(3-(2-fluoroethyl)-2-methyl-3H-imidazo[4,5-b]pyridin-5-yl)-N^4-methylpyrrolo[2,1-f][1,2,4]triazine-2,4-diamine], the IC50 was 15.8 nM. With CNc1nc(N[C@@H]2CCN(C3COC3)CC2(F)F)nn2ccc(-c3ccc4nc(C)n(CCF)c4n3)c12 [Compound 160, (R)—N^2-(3,3-Difluoro-1-(oxetan-3-yl)piperidin-4-yl)-5-(3-(2-fluoroethyl)-2-methyl-3H-imidazo[4,5-b]pyridin-5-yl)-N^4-methylpyrrolo[2,1-f][1,2,4]triazine-2,4-diamine] the IC50 was 2.2 nM. With CNc1nc(N[C@H]2CC[C@](C)(O)CC2)nn2cc(F)c(-c3ccc4nc(C)n(CCF)c4n3)c12 [Compound 162, (1r,4r)-4-((6-Fluoro-5-(3-(2-fluoroethyl)-2-methyl-3H-imidazo[4,5-b]pyridin-5-yl)-4-(methylamino)pyrrolo[2,1-f][1,2,4]triazin-2-yl)amino)-1-methylcyclohexan-1-ol] the IC50 was 3.1 nM. CNc1nc(N[C@H]2CCN(C(C)=O)C[C@H]2F)nn2cc(F)c(-c3ccc4nc(C)n(CCF)c4n3)c12 [Compound 163, 1-((3R,4S)-3-Fluoro-4-((6-fluoro-5-(3-(2-fluoroethyl)-2-methyl-3H-imidazo [4,5-b]pyridin-5-yl)-4-(methylamino)pyrrolo[2,1-f][1,2,4]triazin-2-yl)amino)piperidin-1-yl)ethan-1-one] showed an IC50 of 1.3 nM. Work on CNc1nc(N[C@H]2CCN(C3COC3)C[C@H]2F)nn2cc(F)c(-c3ccc4nc(C)n(CCF)c4n3)c12 [Compound 164, 6-Fluoro-N^2-((3R,4S)-3-fluoro-1-(oxetan-3-yl)piperidin-4-yl)-5-(3-(2-fluoroethyl)-2-methyl-3H-imidazo[4,5-b]pyridin-5-yl)-N^4-methylpyrrolo[2,1-f][1,2,4]triazine-2,4-diamine] yielded an IC50 of 1.8 nM.
